Results on five compounds are retold here after paper PMC3086652 (European journal of immunology, 2010).

Among the targets are HLA A*0202 (Homo sapiens, UniProt P04439, D140Y/D185E/D98H/E176V/E277Q/G131W/G231S/I119L/I121R/I166T/I218V/L180W/L300P/L318F/N151K/N90K/P208A/P217A/Q67R/Q86G/Q94H/R138H/R169H/T345S); HLA A*6802 (Homo sapiens, UniProt P04439, A269V/D140Y/D185E/E176V/E277Q/E87N/F33Y/G231S/I121R/I166T/I218V/L180W/L300P/L318F/N151K/P208A/P217A/Q86R/R138H/R169H/S129P/T345S/V36M); HLA A*0203 (Homo sapiens, UniProt P04439, A173T/D140Y/D185E/D98H/E277Q/G131W/G231S/I119V/I121R/I166T/I218V/L180W/L300P/L318F/N151K/N90K/P208A/P217A/Q86G/Q94H/R138H/R169H/T345S); HLA A*0206 (Homo sapiens, UniProt P04439, D140Y/D185E/D98H/E176V/E277Q/F33Y/G131W/G231S/I119V/I121R/I166T/I218V/L300P/L318F/N151K/N90K/P208A/P217A/Q86G/Q94H/R138H/R169H/T345S); HLA A*0201 (Homo sapiens, UniProt P04439, D140Y/D185E/D98H/E176V/E277Q/G131W/G231S/I119V/I121R/I166T/I218V/L300P/L318F/N151K/N90K/P208A/P217A/Q86G/Q94H/R138H/R169H/T345S).

What all share (assay): biochemical
Common to all, as to assay type: binding

pIC50: −log10 of the molar value. Ends that are not written are not given here.

One may read the pIC50 as −log10 of the IC50, conventionally taken in molar units.

With `CC(C)C[C@H](NC(=O)[C@@H](N)[C@@H](C)O)C(=O)N[C@@H](CC(N)=O)C(=O)N[C@@H](C)C(=O)N[C@@H](Cc1c[nH]c2ccccc12)C(=O)N[C@H](C(=O)N[C@@H](CCCCN)C(=O)N[C@H](C(=O)N[C@H](C(=O)O)C(C)C)C(C)C)C(C)C` [TV9, reference compound], the pIC50 on HLA A*0202 was 6.75; at HLA A*6802, 4.62; against HLA A*0203 it was 6.97; at HLA A*0206, 5.71; on HLA A*0201 it was 6.15.
The like results for KINAWIKGV [TV9p5] were, in that order, 6.36, 4.43, 8.00, 6.65 and 6.27.
The like results for KINAWIKVV [TV9p6] were, in that order, 5.53, less than 5.00, 7.25, 4.87 and 5.29.
The like results for TINAWIKGV [TV9p29] were, in that order, 6.15, 6.57, 7.82, 5.65 and 5.97.
As for TINAWIKVV [TV9p30], the negative-log IC50 (pIC50) was 5.74 against HLA A*0202; 5.21 against HLA A*6802; 6.95 at HLA A*0203; 4.90 against HLA A*0206; 5.37 against HLA A*0201.
